Measured values from US10611750B2, “Tetrahydroquinoline compositions as bet bromodomain inhibitors” (FORMA Therapeutics, Inc., priority 2013, dated 2020).

Columns and labels:
[1] = tested on: acute myelocytic leukemia (AML) cell line MV4-11; assay: Oncology cell growth assay (3-day proliferation, CellTiter-Glo); format: cell-based; conditions: Homo sapiens, MV4-11, 72 h, MV4-11 cells, 3000 cells/well, compounds listed under IC50 range headings, read-out: MV411 IC50 (gIC50, inhibition of proliferation)
Method in brief: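 Compounds were serially diluted 3-fold in DMSO, giving final well concentrations from 10 down to 0.0045 μM. MV4-11 cells were then seeded at 3000 cells/well in RPMI 1640 with 10% FBS and incubated 72 hours. CellTiter-Glo signal was measured and gIC50 obtained by four-parameter logistic regression.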

[2] = molecular target: T1, BRD4 Bromodomain 1 (BRD4 BD1) (Homo sapiens, UniProt O60885); assay: AlphaScreen binding assay, BRD4 BD1; conditions: His-tagged BRD4 BD1 50 nM, biotinylated H4 (1-21) K5/8/12/16 tetra-acetylated peptide 50 nM, compounds listed under IC50 range headings
T1 construct: 44-168 and BRD4 BD2
Method in brief: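 Compound dilution series were mixed with His-tagged BRD4 bromodomain and biotinylated tetra-acetylated H4 (1-21) peptide at pH 7.3 (BD1 and peptide at 50 nM, BD2 and peptide at 100 nM). Donor and acceptor beads were then added, and plates were equilibrated at least 1 h before reading. IC50 values were fitted with a four-parameter logistic model.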

SMILES	IC50 [1]	IC50 [2]
COC(=O)N1c2ccc(-c3cn(C)c(N4CCNCC4)n3)c(OC3CCC3)c2CC[C@@H]1C [I-315, (S)-methyl 5-cyclobutoxy-2-methyl-6-(1-methyl-2-(piperazin-1-yl)-1H-imidazol-4-yl)-3,4-dihydroquinoline-1(2H)-carboxylate]	< 500 nM	100 to 1000 nM
COC(=O)N1c2ccc(-c3csc(N4CCNCC4)n3)c(OC3CCC3)c2CC[C@@H]1C [I-316, (S)-methyl 5-cyclobutoxy-2-methyl-6-(2-(piperazin-1-yl)thiazol-4-yl)-3,4-dihydroquinoline-1(2H)-carboxylate]	< 500 nM	100 to 1000 nM
COC(=O)N1c2ccc(-c3csc(N4CC(O)C4)n3)c(OC3CCC3)c2CC[C@@H]1C [I-317, (S)-methyl 5-cyclobutoxy-6-(2-(3-hydroxyazetidin-1-yl)thiazol-4-yl)-2-methyl-3,4-dihydroquinoline-1(2H)-carboxylate]	500 to 1000 nM	100 to 1000 nM
C[C@H]1CCc2c(ccc(-c3cn(C)nn3)c2Oc2cc(F)ccc2F)N1C(=O)C1CC1 [I-318, (S)-cyclopropyl(5-(2,5-difluorophenoxy)-2-methyl-6-(1-methyl-1H-1,2,3-triazol-4-yl)-3,4-dihydroquinolin-1(2H)-yl)methanone]	< 500 nM	100 to 1000 nM
C[C@H]1CCc2c(ccc(-c3cn(C)nn3)c2Oc2ccc(F)c(F)c2)N1C(=O)C1CC1 [I-319, (S)-cyclopropyl(5-(3,4-difluorophenoxy)-2-methyl-6-(1-methyl-1H-1,2,3-triazol-4-yl)-3,4-dihydroquinolin-1(2H)-yl)methanone]	< 500 nM	1000 to 10000 nM
C[C@H]1CCc2c(ccc(-c3cn(C)nn3)c2Oc2ccccc2F)N1C(=O)C1CC1 [I-320, (S)-cyclopropyl(5-(2-fluorophenoxy)-2-methyl-6-(1-methyl-1H-1,2,3-triazol-4-yl)-3,4-dihydroquinolin-1(2H)-yl)methanone]	< 500 nM	100 to 1000 nM
C[C@H]1CCc2c(Oc3ccccc3)c(-c3cn(C)nn3)cc(F)c2N1C(=O)C1CC1 [I-321, (S)-cyclopropyl(8-fluoro-2-methyl-6-(1-methyl-1H-1,2,3-triazol-4-yl)-5-phenoxy-3,4-dihydroquinolin-1(2H)-yl)methanone]	< 500 nM	100 to 1000 nM
COC(=O)N1c2c(F)cc(-c3cn(C)nn3)c(Oc3ccccc3)c2CC[C@@H]1C [I-322, (S)-methyl 8-fluoro-2-methyl-6-(1-methyl-1H-1,2,3-triazol-4-yl)-5-phenoxy-3,4-dihydroquinoline-1(2H)-carboxylate]	< 500 nM	100 to 1000 nM
CC(=O)N1c2c(F)cc(-c3cn(C)nn3)c(Oc3ccccc3)c2CC[C@@H]1C [I-323, (S)-1-(8-fluoro-2-methyl-6-(1-methyl-1H-1,2,3-triazol-4-yl)-5-phenoxy-3,4-dihydroquinolin-1(2H)-yl)ethanone]	< 500 nM	1000 to 10000 nM
C[C@H]1CCc2c(ccc(-n3cccn3)c2OC2CCC2)N1C(=O)C1CC1 [I-324, (S)-(5-cyclobutoxy-2-methyl-6-(1H-pyrazol-1-yl)-3,4-dihydroquinolin-1(2H)-yl)(cyclopropyl)methanone]	> 1000 nM	≥ 10000 nM
C[C@H]1CCc2c(ccc(-n3cccn3)c2Oc2ccccc2)N1C(=O)C1CC1 [I-325, (S)-cyclopropyl(2-methyl-5-phenoxy-6-(1H-pyrazol-1-yl)-3,4-dihydroquinolin-1(2H)-yl)methanone]	> 1000 nM	≥ 10000 nM
C[C@H]1CCc2c(ccc(-n3nccn3)c2OC2CCC2)N1C(=O)C1CC1 [I-326, (S)-(5-cyclobutoxy-2-methyl-6-(2H-1,2,3-triazol-2-yl)-3,4-dihydroquinolin-1(2H)-yl)(cyclopropyl)methanone]	> 1000 nM	≥ 10000 nM
C[C@H]1CCc2c(ccc(-n3nccn3)c2Oc2ccccc2)N1C(=O)C1CC1 [I-327, (S)-cyclopropyl(2-methyl-5-phenoxy-6-(2H-1,2,3-triazol-2-yl)-3,4-dihydroquinolin-1(2H)-yl)methanone]	> 1000 nM	≥ 10000 nM
C[C@H]1CCc2c(ccc(-c3ncc(C4CCNCC4)[nH]3)c2OC2CCC2)N1C(=O)C1CC1 [I-328, (S)-(5-cyclobutoxy-2-methyl-6-(5-(piperidin-4-yl)-1H-imidazol-2-yl)-3,4-dihydroquinolin-1(2H)-yl)(cyclopropyl)methanone]	< 500 nM	1000 to 10000 nM
C[C@H]1CCc2c(ccc(-c3ncc(C4CCNCC4)[nH]3)c2Oc2ccccc2)N1C(=O)C1CC1 [I-329, (S)-cyclopropyl(2-methyl-5-phenoxy-6-(5-(piperidin-4-yl)-1H-imidazol-2-yl)-3,4-dihydroquinolin-1(2H)-yl)methanone]	< 500 nM	100 to 1000 nM

Results, then the compound that gave them:

IC50 [1]	IC50 [2]	SMILES
< 500 nM	100 to 1000 nM	Cc1cc(Oc2c(-c3cnn(C4CCNCC4)c3)ccc3c2CC[C@H](C)N3C(=O)C2CC2)cc(C)n1 [I-330, (S)-cyclopropyl(5-(2,6-dimethylpyridin-4-yloxy)-2-methyl-6-(1-(piperidin-4-yl)-1H-pyrazol-4-yl)-3,4-dihydroquinolin-1(2H)-yl)methanone]
< 500 nM	100 to 1000 nM	Cc1cccc(Oc2c(-c3cnn(C4CCNCC4)c3)ccc3c2CC[C@H](C)N3C(=O)C2CC2)n1 [I-331, (S)-cyclopropyl(2-methyl-5-(6-methylpyridin-2-yloxy)-6-(1-(piperidin-4-yl)-1H-pyrazol-4-yl)-3,4-dihydroquinolin-1(2H)-yl)methanone]
< 500 nM	100 to 1000 nM	Cc1ccc(Oc2c(-c3cnn(C4CCNCC4)c3)ccc3c2CC[C@H](C)N3C(=O)C2CC2)c(C)n1 [I-332, (S)-cyclopropyl(5-(2,6-dimethylpyridin-3-yloxy)-2-methyl-6-(1-(piperidin-4-yl)-1H-pyrazol-4-yl)-3,4-dihydroquinolin-1(2H)-yl)methanone]
< 500 nM	100 to 1000 nM	COC(=O)N1c2ccc(-c3cnn(C4CCNCC4)c3)c(Oc3cccc(C)n3)c2CC[C@@H]1C [I-333, (S)-methyl 2-methyl-5-(6-methylpyridin-2-yloxy)-6-(1-(piperidin-4-yl)-1H-pyrazol-4-yl)-3,4-dihydroquinoline-1(2H)-carboxylate]
< 500 nM	1000 to 10000 nM	CC(=O)N1c2ccc(-c3cnn(C4CCNCC4)c3)c(Oc3cccc(C)n3)c2CC[C@@H]1C [I-334, (S)-1-(2-methyl-5-(6-methylpyridin-2-yloxy)-6-(1-(piperidin-4-yl)-1H-pyrazol-4-yl)-3,4-dihydroquinolin-1 (2H)-yl)ethanone]
< 500 nM	100 to 1000 nM	COC(=O)N1c2ccc(-c3cnn(C4CCNCC4)c3)c(Oc3cccc(OC)n3)c2CC[C@@H]1C [I-335, (S)-methyl 5-(6-methoxypyridin-2-yloxy)-2-methyl-6-(1-(piperidin-4-yl)-1H-pyrazol-4-yl)-3,4-dihydroquinoline-1(2H)-carboxylate]
< 500 nM	100 to 1000 nM	COc1cccc(Oc2c(-c3cnn(C4CCNCC4)c3)ccc3c2CC[C@H](C)N3C(C)=O)n1 [I-336, (S)-1-(5-(6-methoxypyridin-2-yloxy)-2-methyl-6-(1-(piperidin-4-yl)-1H-pyrazol-4-yl)-3,4-dihydroquinolin-1 (2H)-yl)ethanone]
